Test results reported in ChEMBL document CHEMBL1201862, “PubChem BioAssay data set” (2004).
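Following 48 hours of exposure in 96-well plates, responses at five concentrations were used to interpolate endpoints linearly. GI50: concentration for 50% inhibition of growth.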 Active and inactive are the calls of the source. Cut-off read from the data, not from the text of the source: active = GI50 up to about 1.1 µM and inactive = higher.

Tests used:
Assay in all cases: growth of human tumour cells (NCI), 48 h
OVCAR-8 = system: OVCAR-8
HCT-15 = system: HCT-15
OVCAR-4 = system: OVCAR-4
ACHN = system: ACHN
NCI-H23 = system: NCI-H23
IGROV-1 = system: IGROV-1
CAKI-1 = system: CAKI-1
UO-31 = system: UO-31
A549 = system: A549
SW-620 = system: SW-620
SF-539 = system: SF-539
HOP-62 = system: HOP-62
NCI-H460 = system: NCI-H460
CCRF-CEM = system: CCRF-CEM
HCT-116 = system: HCT-116
HOP-92 = system: HOP-92

SMILES	GI50 (OVCAR-8)	GI50 (HCT-15) [µM]	GI50 (OVCAR-4)	GI50 (ACHN)	GI50 (NCI-H23)	GI50 (IGROV-1)	GI50 (CAKI-1)	GI50 (UO-31)	GI50 (A549)	GI50 (SW-620)	GI50 (SF-539)	GI50 (HOP-62)	GI50 (NCI-H460)	GI50 (CCRF-CEM)	GI50 (HCT-116)	GI50 (HOP-92)
COc1ccc2c(c1)CC1NC2Cc2ccccc21 (stereo not given)	> 100 µM (inactive)	> 100	> 100 µM (inactive)	> 100 µM (inactive)	> 100 µM (inactive)	> 100 µM (inactive)	> 100 µM (inactive)	> 100 µM (inactive)	> 100 µM (inactive)	> 100 µM (inactive)	> 100 µM (inactive)	> 100 µM (inactive)	> 100 µM (inactive)	> 100 µM (inactive)	> 100 µM (inactive)	–
CCC1=CC2CN3Cn4c(c(COCc5c6n(c7ccccc57)CN5CC7C=C(CC)C5C6(C(=O)OC)C7)c5ccccc54)C(C(=O)OC)(C2)C13	> 100 µM (inactive)	> 100	> 100 µM (inactive)	68.4 µM (inactive)	> 100 µM (inactive)	> 100 µM (inactive)	> 100 µM (inactive)	> 100 µM (inactive)	> 100 µM (inactive)	> 100 µM (inactive)	–	> 100 µM (inactive)	> 100 µM (inactive)	> 100 µM (inactive)	> 100 µM (inactive)	–
N=C(N)NNC(=O)CCCCCCCC(=O)NNC(=N)N	–	17.9	33.9 µM (inactive)	> 100 µM (inactive)	> 100 µM (inactive)	> 100 µM (inactive)	> 100 µM (inactive)	> 100 µM (inactive)	> 100 µM (inactive)	10.4 µM (inactive)	> 100 µM (inactive)	> 100 µM (inactive)	> 100 µM (inactive)	> 100 µM (inactive)	> 100 µM (inactive)	–
COc1cccc(C(=O)O)c1Cc1cccc2ccccc12	99.8 µM (inactive)	> 100	> 100 µM (inactive)	> 100 µM (inactive)	> 100 µM (inactive)	> 100 µM (inactive)	> 100 µM (inactive)	> 100 µM (inactive)	> 100 µM (inactive)	> 100 µM (inactive)	–	> 100 µM (inactive)	> 100 µM (inactive)	> 100 µM (inactive)	> 100 µM (inactive)	–
Cc1c(C(=O)Nc2ccc(Cl)c(C(F)(F)F)c2)oc2cc(O)ccc2/c1=N\NC(N)=S	> 100 µM (inactive)	> 100	> 100 µM (inactive)	> 100 µM (inactive)	> 100 µM (inactive)	> 100 µM (inactive)	> 100 µM (inactive)	> 100 µM (inactive)	> 100 µM (inactive)	> 100 µM (inactive)	> 100 µM (inactive)	> 100 µM (inactive)	> 100 µM (inactive)	> 100 µM (inactive)	> 100 µM (inactive)	–
CN(C)c1ccc(C(C=C2c3ccccc3Sc3ccccc32)=C(C#N)C#N)cc1	94.8 µM (inactive)	> 100	16 µM (inactive)	37.5 µM (inactive)	> 100 µM (inactive)	> 100 µM (inactive)	65.9 µM (inactive)	82.8 µM (inactive)	> 100 µM (inactive)	> 100 µM (inactive)	77.3 µM (inactive)	93.8 µM (inactive)	68.9 µM (inactive)	> 100 µM (inactive)	> 100 µM (inactive)	–
O=C(/C=C/c1ccc[nH]1)c1ccccc1	> 100 µM (inactive)	> 100	> 100 µM (inactive)	> 100 µM (inactive)	> 100 µM (inactive)	–	> 100 µM (inactive)	> 100 µM (inactive)	> 100 µM (inactive)	> 100 µM (inactive)	> 100 µM (inactive)	> 100 µM (inactive)	> 100 µM (inactive)	> 100 µM (inactive)	> 100 µM (inactive)	56.2 µM (inactive)
COc1nc(OC)c2c(=O)oc(-c3ccccc3)cc2n1	> 100 µM (inactive)	> 100	> 100 µM (inactive)	> 100 µM (inactive)	> 100 µM (inactive)	> 100 µM (inactive)	> 100 µM (inactive)	> 100 µM (inactive)	> 100 µM (inactive)	> 100 µM (inactive)	> 100 µM (inactive)	–	–	–	> 100 µM (inactive)	> 100 µM (inactive)
c1ccc2c(c1)CCc1c(-c3n[nH]c4c3CCc3ccccc3-4)n[nH]c1-2	> 100 µM (inactive)	> 100	–	> 100 µM (inactive)	> 100 µM (inactive)	> 100 µM (inactive)	> 100 µM (inactive)	> 100 µM (inactive)	> 100 µM (inactive)	> 100 µM (inactive)	> 100 µM (inactive)	> 100 µM (inactive)	> 100 µM (inactive)	> 100 µM (inactive)	> 100 µM (inactive)	> 100 µM (inactive)
